# Test results reported in PubChem BioAssay (NCI).
#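 Cells were grown in 96-well plates and exposed to each compound for 48 hours at five concentrations; endpoints were interpolated linearly between bracketing concentrations, or set to the highest concentration if not reached. Here, GI50 denotes the concentration required for 50% inhibition of growth. TGI: concentration producing complete growth inhibition.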
# Columns and labels:
# Assay in all cases: inhibition of tumour cell growth, NCI panel, 48 h
# SF-295 CNS = system: SF-295 CNS
# SF-268 CNS = system: SF-268 CNS
# T-47D breast = system: T-47D breast
# U251 CNS = system: U251 CNS
# A498 renal = system: A498 renal
# SR leukemia = system: SR leukemia
# SK-OV-3 ovarian = system: SK-OV-3 ovarian
# UACC-62 melanoma = system: UACC-62 melanoma
# MDA-MB-435 = system: MDA-MB-435
# A549 NSCLC = system: A549 NSCLC
# MALME-3M melanoma = system: MALME-3M melanoma
# HT29 colon = system: HT29 colon
# K-562 leukemia = system: K-562 leukemia
# OVCAR-4 ovarian = system: OVCAR-4 ovarian
# HCT-15 colon = system: HCT-15 colon
# OVCAR-8 ovarian = system: OVCAR-8 ovarian
# NCI-H226 lung = system: NCI-H226 lung
# DU-145 prostate = system: DU-145 prostate
# SNB-75 CNS = system: SNB-75 CNS
# NCI-H460 lung = system: NCI-H460 lung
# NCI-H522 lung = system: NCI-H522 lung
# CCRF-CEM leukemia = system: CCRF-CEM leukemia
# EKVX NSCLC = system: EKVX NSCLC
# RXF 393 renal = system: RXF 393 renal
# HOP-62 NSCLC = system: HOP-62 NSCLC
# SN12C renal = system: SN12C renal
# MDA-MB-231 breast = system: MDA-MB-231 breast
# MOLT-4 leukemia = system: MOLT-4 leukemia
# CAKI-1 renal = system: CAKI-1 renal
# 786-0 renal = system: 786-0 renal
compound,measurement,setting,value
CN(CCO)c1oc(-c2ccccc2)nc1[P+](c1ccccc1)(c1ccccc1)c1ccccc1,GI50,SF-295 CNS,2.62 µM
same,TGI,SF-295 CNS,9.92 µM
same,GI50,SF-268 CNS,3.27 µM
same,TGI,SF-268 CNS,14 µM
same,GI50,T-47D breast,0.517 µM
same,TGI,T-47D breast,11.2 µM
same,GI50,U251 CNS,2.31 µM
same,TGI,U251 CNS,13.6 µM
same,GI50,A498 renal,6.82 µM
same,TGI,A498 renal,22.8 µM
same,GI50,SR leukemia,1.64 µM
same,TGI,SR leukemia,12.4 µM
same,GI50,SK-OV-3 ovarian,2.98 µM
same,TGI,SK-OV-3 ovarian,8.21 µM
same,GI50,UACC-62 melanoma,1.23 µM
same,TGI,UACC-62 melanoma,5.97 µM
same,GI50,MDA-MB-435,1.6 µM
same,TGI,MDA-MB-435,9.66 µM
same,GI50,A549 NSCLC,5.22 µM
same,TGI,A549 NSCLC,34.6 µM
same,GI50,MALME-3M melanoma,1.6 µM
same,TGI,MALME-3M melanoma,9.14 µM
same,GI50,HT29 colon,2.82 µM
same,TGI,HT29 colon,21.2 µM
same,GI50,K-562 leukemia,1.01 µM
same,TGI,K-562 leukemia,13.6 µM
same,GI50,OVCAR-4 ovarian,2.79 µM
same,TGI,OVCAR-4 ovarian,27.1 µM
same,GI50,HCT-15 colon,13.5 µM
same,TGI,HCT-15 colon,31.2 µM
same,GI50,OVCAR-8 ovarian,3.33 µM
same,TGI,OVCAR-8 ovarian,16.3 µM
same,GI50,NCI-H226 lung,2.73 µM
same,TGI,NCI-H226 lung,10.9 µM
same,GI50,DU-145 prostate,3.26 µM
same,TGI,DU-145 prostate,13.7 µM
same,GI50,SNB-75 CNS,1.28 µM
same,TGI,SNB-75 CNS,5.89 µM
same,GI50,NCI-H460 lung,2.74 µM
same,TGI,NCI-H460 lung,12.4 µM
same,GI50,NCI-H522 lung,0.854 µM
same,TGI,NCI-H522 lung,4.05 µM
same,GI50,CCRF-CEM leukemia,2.39 µM
same,TGI,CCRF-CEM leukemia,12.2 µM
same,GI50,EKVX NSCLC,2.35 µM
same,TGI,EKVX NSCLC,13.4 µM
same,GI50,RXF 393 renal,1.94 µM
same,TGI,RXF 393 renal,9.64 µM
same,GI50,HOP-62 NSCLC,3.49 µM
same,TGI,HOP-62 NSCLC,13 µM
same,GI50,SN12C renal,2.4 µM
same,TGI,SN12C renal,6.88 µM
same,GI50,MDA-MB-231 breast,1.36 µM
same,TGI,MDA-MB-231 breast,4.18 µM
same,GI50,MOLT-4 leukemia,2.77 µM
same,TGI,MOLT-4 leukemia,11.8 µM
same,GI50,CAKI-1 renal,4 µM
same,TGI,CAKI-1 renal,24.9 µM
same,GI50,786-0 renal,5.31 µM
